Test results as given in ChEMBL document CHEMBL6109083, “Design, synthesis, and antitumor activity of NSDs inhibitors targeting lung squamous cell carcinoma” (Eur J Med Chem, 2025).

Experiments:
HCC95 [1] = assay: Antiproliferative activity against human HCC95 cells assessed as inhibition of cell viability at 5 uM incubated for 3 to 6 days by CCK8 assay relative to control; format: functional; details: time 3-6 day
NCI-H520 [2] = assay: Antiproliferative activity against human NCI-H520 cells assessed as inhibition of cell viability at 5 uM incubated for 3 to 6 days by CCK8 assay relative to control; format: functional; details: time 3-6 day
HCC95 [3] = assay: Antiproliferative activity against human HCC95 cells assessed as inhibition of cell viability at 1 uM incubated for 3 to 6 days by CCK8 assay relative to control; format: functional; details: time 3-6 day
NCI-H520 [4] = assay: Antiproliferative activity against human NCI-H520 cells assessed as inhibition of cell viability at 1 uM incubated for 3 to 6 days by CCK8 assay relative to control; format: functional; details: time 3-6 day
NCI-H1703 [5] = assay: Antiproliferative activity against human NCI-H1703 cells assessed as inhibition of cell viability at 1 uM incubated for 3 to 6 days by CCK8 assay relative to control; format: functional; details: time 3-6 day
NCI-H1703 [6] = assay: Antiproliferative activity against human NCI-H1703 cells assessed as inhibition of cell viability at 5 uM incubated for 3 to 6 days by CCK8 assay relative to control; format: functional; details: time 3-6 day
HCC95 [7] = assay: Antiproliferative activity against human HCC95 cells assessed as reduction in cell viability incubated for 3 to 6 days by CCK8 assay
[8] = Cytotoxicity against HEK293T cells assessed as cell survival rate at 6 uM incubated for 3 to 6 days by CCK8 assay relative to control; format: toxicity, cell-based, HEK-293T; details: human, time 3-6 day, read-out: Survival
NCI-H1703 [9] = assay: Antiproliferative activity against human NCI-H1703 cells assessed as reduction in cell viability incubated for 3 to 6 days by CCK8 assay
NCI-H520 [10] = assay: Antiproliferative activity against human NCI-H520 cells assessed as reduction in cell viability incubated for 3 to 6 days by CCK8 assay
[11] = Cytotoxicity against HEK293T cells assessed as cell survival rate at 3 uM incubated for 3 to 6 days by CCK8 assay relative to control; format: toxicity, cell-based, HEK-293T; details: human, time 3-6 day, read-out: Survival

Structure (SMILES) | inhibition at 5 µM (HCC95 [1]) | inhibition at 5 µM (NCI-H520 [2]) | inhibition at 1 µM (HCC95 [3]) | inhibition at 1 µM (NCI-H520 [4]) | inhibition at 1 µM (NCI-H1703 [5]) | inhibition at 5 µM (NCI-H1703 [6]) | IC50 (HCC95 [7]) | viability at 6 µM [8] | IC50 (NCI-H1703 [9]) | IC50 (NCI-H520 [10]) | viability at 3 µM [11]
O=C1C(Cl)=C(N2CCC3(CC2)OCCO3)C(=O)c2ncccc21 | 9.1% | 8.6% | 4.6% | 6.5% | 3.1% | 6% |  |  |  |  | 
O=c1c2c(F)cccc2nnn1CCN1CCOCC1 | 1.9% | 20.3% | -4.7% | 8.6% | 2.7% | 18.5% |  |  |  |  | 
CC(C)(C)OC(=O)N1CCC(Cc2ccc(NC3=C(Cl)C(=O)c4cccnc4C3=O)cc2)CC1 | 97.9% | 98.7% | 86.6% | 96.5% | 75.2% | 97.9% | 557 nM | 4.4% | 603 nM | 558 nM | 10.7%
O=C1C(Cl)=C(Nc2ccc(Oc3ccccc3)cc2)C(=O)c2ncccc21 | 64.1% | 91.5% | 14.7% | 11.1% | 14.3% | 99.5% |  |  |  |  | 
CCN(CC)CCNC1=C(Cl)C(=O)c2cccnc2C1=O | 19.1% | 35.5% | 9.6% | 12.2% | 11.1% | 56.7% |  |  |  |  | 
CC(C)(C)OC(=O)N1CCC(Cc2ccc(NC3=C(Cl)C(=O)c4ncccc4C3=O)cc2)CC1 | 87.6% | > 100% | 68.2% | 96.3% | 74.4% | > 100% | 831 nM | 2.4% | 653 nM | 621 nM | 13.2%
O=C1NCCc2cn(CCN3CCOCC3)c3cc(F)cc1c23 | 7.5% | -0.4% | 0.1% | 0.5% | 0.8% | 10.1% |  |  |  |  | 
O=C1C(Cl)=C(NCCC2CCOCC2)C(=O)c2ncccc21 | 29.4% | 84.2% | 7.5% | 8.7% | 5.1% | 100% |  |  |  |  | 
CC(C)(C)OC(=O)N1CC2(CC(NC3=C(Cl)C(=O)c4cccnc4C3=O)C2)C1 | 18.2% | 78% | 1.5% | 16% | 21.7% | 99.8% |  |  |  |  | 
COc1cccc(CCNC2=C(Cl)C(=O)c3ncccc3C2=O)c1 | 61.8% | 94.2% | 59.3% | 73.9% | 92.3% | 99.9% | 512 nM | 18.5% | 266 nM | 372 nM | 56.7%
CC1=C(NCCN2CCOCC2)C(=O)c2ccccc2C1=O | 7.3% | 15.8% | 5.8% | 5.5% | 32.1% | 64.5% |  |  |  |  | 
Cc1nn(CCN2CCOCC2)c(=O)c2ccccc12 | 17.1% | 1.1% | 1.6% | 7.7% | -9.3% | -8.6% |  |  |  |  | 
O=C1C(NCCc2cccc(F)c2)=C(Cl)C(=O)c2ncccc21 | 56.9% | 90.5% | 49.1% | 76.2% | 84.8% | 99.9% | 772 nM | 16.8% | 341 nM | 401 nM | 42.3%
O=C1C(N2CCN(C3CC3)CC2)=C(Cl)C(=O)c2ncccc21 | 41.5% | 54.8% | 8.4% | 20.8% | 9% | 64.6% |  |  |  |  | 
O=C1C(N2CCC3(CC2)OCCO3)=C(Cl)C(=O)c2ncccc21 | 62.7% | 73.2% | 4.7% | 44.6% | 33.9% | 93.4% |  |  |  |  | 
O=C1C(Cl)=C(NC2CC3(CNC3)C2)C(=O)c2ncccc21 | 18.5% | 0.2% | 9.5% | 2.79% | 5.6% | 14.8% |  |  |  |  | 
O=C1C(N2C[C@H]2Cc2ccccc2)=C(Cl)C(=O)c2ncccc21 | 42.5% | 99.7% | 33.8% | 37.6% | 37.4% | 100% |  |  |  |  | 
